Test results: PMC6289772 (Cancer, 2018)

Key:
[1] = Toxicity / dose-limiting toxicity evaluation, phase 1 trial; assay type: in vivo
[2] = assay type: in vivo, human (children and adolescents)
[3] = test system: recurrent or refractory solid tumors; assay: Tumor response assessment; assay type: in vivo, human (children and adolescents)
[4] = Axitinib plasma pharmacokinetics, phase 1 trial; assay type: in vivo
[5] = cited from earlier work
[6] = median (range), Dose Level 2.4 mg/m^2, Day 1 (n=12)
[7] = median (range), Dose Level 3.2 mg/m^2, Day 1 (n=6)

## CNC(=O)c1ccccc1Sc1ccc2c(/C=C/c3ccccn3)n[nH]c2c1 [Axitinib]
[1]; human, in vivo
  Abdominal pain, Grade 2: 1
  Alanine aminotransferase increased, Grade 2: 1
  Anemia, Grade 1: 1
  Anorexia, Grade 1: 1
  Fatigue, Grade 1: 3
  Fatigue, Grade 2: 1
  Headache, Grade 2: 1
  Hemoglobin increased, Grade 1: 1
  Hemoglobin increased, Grade 2: 2
  Hemoglobin increased, Grade 3: 1
  Hypertension, Grade 2: 3
  Hypertension, Grade 3: 1
  Hypophosphatemia, Grade 1: 1
  Hypothyroidism, Grade 2: 2
  Leukopenia, Grade 1: 1
  Lipase increased, Grade 2: 2
  Lipase increased, Grade 3: 1
  Lymphopenia, Grade 1: 1
  Nausea, Grade 1: 1
  Nausea, Grade 2: 2
  Neutropenia, Grade 2: 2
  Palmar-plantar erythrodysesthesia syndrome, Grade 1: 1
  Palmar-plantar erythrodysesthesia syndrome, Grade 2: 1
  Proteinuria, Grade 1: 2
  Proteinuria, Grade 2: 1
  Vomiting, Grade 1: 1
[1]; human, in vivo, 1 cycle
  Anemia, Grade 1: 3
  Anemia, Grade 2: 2
  Hemoglobin increased, Grade 1: 3
  Hypertension, Grade 2: 4
  Hypophosphatemia, Grade 1: 2
  Hypothyroidism, Grade 1: 1
  Hypothyroidism, Grade 2: 2
  Leukopenia, Grade 1: 1
  Lipase increased, Grade 1: 1
  Lipase increased, Grade 2: 1
  Lymphopenia, Grade 1: 1
  Lymphopenia, Grade 2: 1
  Neutropenia, Grade 2: 1
  Palmar-plantar erythrodysesthesia syndrome, Grade 2: 2
  Proteinuria, Grade 1: 2
  Rash acneiform, Grade 1: 2
  Sore throat, Grade 1: 2
  Thrombocytopenia, Grade 1: 1
  Vomiting, Grade 1: 3
[1]; human, in vivo, po, 28 days
  recommended phase 2 dose (RP2D): 2.4 mg/m^2/dose
[1]; in vivo
  DLTs at dose level 1: No DLTs
  growth plate abnormalities (tibia radiograph): No growth plate abnormalities were observed
  number of grade 3 toxicities (non-dose limiting): three
[1]; orally twice daily, continuous 28-day cycles, children with refractory solid tumors
  maximum tolerated and recommended dose: 2.4 mg/m^2/dose
[2]; cycle 1 or between dose levels
  trends in AKI biomarkers (KIM-1, NGAL, IL-18) during axitinib therapy: no trends were identified
[2]; during axitinib therapy, not significant (P=0.30)
  increase in urine UPC ratio per cycle: 4%
[3]; alveolar soft part sarcoma, 15 patients with reportable response
  patients with partial response: One patient
[3]; patient with alveolar soft part sarcoma, prior to clinical progression
  duration of partial response: 6 months
[4]; Day 1, children <12 years
  median oral clearance CL/F: 28.6 L/h/m^2
[4]; Day 1, children ≥12 years
  median oral clearance CL/F: 19.7 L/h/m^2
[4]; Day 1, females
  median oral clearance CL/F: 19.7 L/h/m^2
[4]; Day 1, males
  median oral clearance CL/F: 24.2 L/h/m^2
[4]; human, plasma, oral
  half-life: 2.4 h
[4]; human, plasma, oral, 2.4 mg/m2, AUC0–8h, median (range), Dose Level 2.4 mg/m^2, Day 1 (n=12)
  AUC(0-t): 91 ng·h/mL
[4]; human, plasma, oral, 2.4 mg/m2, AUC0–8h, median (range), Dose Level 2.4 mg/m^2, Day 8 (n=12)
  AUC(0-t): 147 ng·h/mL
[4]; human, plasma, oral, 2.4 mg/m2, Cmax, median (range), Dose Level 2.4 mg/m^2, Day 1 (n=12)
  Cmax: 23.8 ng/mL
[4]; human, plasma, oral, 2.4 mg/m2, Cmax, median (range), Dose Level 2.4 mg/m^2, Day 8 (n=12)
  Cmax: 47.4 ng/mL
[4]; human, plasma, oral, 2.4 mg/m2, Half life, median (range), Dose Level 2.4 mg/m^2, Day 1 (n=12)
  half-life: 2.2 h
[4]; human, plasma, oral, 2.4 mg/m2, Half life, median (range), Dose Level 2.4 mg/m^2, Day 8 (n=12)
  half-life: 2.5 h
[4]; human, plasma, oral, 2.4 mg/m2, Tmax, median (range), Dose Level 2.4 mg/m^2, Day 1 (n=12)
  Tmax: 2 h
[4]; human, plasma, oral, 2.4 mg/m2, Tmax, median (range), Dose Level 2.4 mg/m^2, Day 8 (n=12)
  Tmax: 1.5 h
[4]; human, plasma, oral, 3.2 mg/m2, AUC0–8h, median (range), Dose Level 3.2 mg/m^2, Day 1 (n=6)
  AUC(0-t): 134 ng·h/mL
[4]; human, plasma, oral, 3.2 mg/m2, AUC0–8h, median (range), Dose Level 3.2 mg/m^2, Day 8 (n=5)
  AUC(0-t): 140 ng·h/mL
[4]; human, plasma, oral, 3.2 mg/m2, Cmax, median (range), Dose Level 3.2 mg/m^2, Day 1 (n=6)
  Cmax: 38 ng/mL
[4]; human, plasma, oral, 3.2 mg/m2, Half life, median (range), Dose Level 3.2 mg/m^2, Day 1 (n=6)
  half-life: 2.6 h
[4]; human, plasma, oral, 3.2 mg/m2, Half life, median (range), Dose Level 3.2 mg/m^2, Day 8 (n=5)
  half-life: 1.8 h
[4]; human, plasma, oral, 3.2 mg/m2, Tmax, median (range), Dose Level 3.2 mg/m^2, Day 1 (n=6)
  Tmax: 2 h
[4]; human, plasma, oral, 3.2 mg/m2, Tmax, median (range), Dose Level 3.2 mg/m^2, Day 8 (n=5)
  Tmax: 2 h
[4]; human, plasma, oral, half-life (range), all patients
  half-life: 0.7 to 5.2 h
[4]; human, plasma, oral, median half-life, Day 8, all patients
  half-life: 2.5 h
[4]; median (range), all patients
  accumulation ratio (day 8 AUC0–8h versus day 1 AUC0–8h): 1.8 (0.3 – 4.7)
[4]; [6]
  Cl/F: 28.0 (9.8–230.1) L/h
  Cl/m^2: 21.4 (6.0–230.1) L/h/m^2
  V/F: 74.9 (43.6–888.7) L
  V/m^2: 67.4 (39.1–888.7) L/m^2
[4]; [7]
  Cl/F: 32.6 (14.2–65.2) L/h
  Cl/m^2: 19.9 (11.4–61.5) L/h/m^2
  V/F: 99.4 (48.9–150.6) L
  V/m^2: 65.5 (39.1–101.6) L/m^2
[4]; median (range), Dose Level 3.2 mg/m^2, Day 8 (n=5)
  Cmax: 41.5 (15.5–76.5) ng/mL
[5]; PO BID
  maximum tolerated dose (MTD) in adults: 5 mg
[5]; adults
  median time to onset of grade 1–2 hypertension: 16 days
  median time to onset of grade ≥ 3 hypertension: 24 days
  patients with discontinuation due to axitinib related hypertension: < 1%
  patients with dose interruptions due to axitinib related hypertension: 12%
  patients with dose modification due to axitinib related hypertension: 5%
